These cell lines were tested with Cc1ccc2nc(NCCN)c3ncc(C)n3c2c1 + Cc1cc(Nc2cc(N3CCN(C)CC3)nc(Sc3ccc(NC(=O)C4CC4)cc3)n2)n[nH]1 [Tozasertib] (partner 0.1 µM) (assay: relative viability (nuclei count vs DMSO), 5 days (fraction); higher = more cells survive). Conditions: first compound 0.04 µM.
Method in brief: (§1)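 Dosing by pin tool came one day after lung cancer cell lines were seeded in 1536-well plates, using either one drug or a fixed anchor-drug dose plus five library-drug doses (not always all listed) in √10 steps. After 5 days, nuclei were counted on 4× images. Relative viability is treated-well nuclei count divided by vehicle-well nuclei count, and values are medians of duplicate plates.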
Cell Line NCI-H1755 has a relative viability of 0.552.
Work on HCC-15 yielded a relative viability of 0.382.
With PC-14 the relative viability was 0.604.
For EKVX, the relative viability was 0.433.
LC-2-ad gave a relative viability of 0.445.
NCI-H1975 showed a relative viability of 0.818.
For RERF-LC-KJ, the relative viability was 0.512.
Cell Line ABC-1 has a relative viability of 0.171.
In the case of NCI-H1944, the relative viability is reported as 0.256.
With NCI-H650 the relative viability was 0.725.
PC-3 [JPC-3] showed a relative viability of 0.899.

Same assay, conditions: first compound 0.1265 µM
With NCI-H1755 the relative viability was 0.565.
For HCC-15, the relative viability was 0.412.
PC-14 was tested, and the relative viability was 0.524.
EKVX showed a relative viability of 0.359.
With LC-2-ad the relative viability was 0.491.
Work on NCI-H1975 yielded a relative viability of 0.866.
RERF-LC-KJ gave a relative viability of 0.506.
ABC-1 showed a relative viability of 0.15.
NCI-H1944 gave a relative viability of 0.248.
In the case of NCI-H650, the relative viability is reported as 0.727.
For PC-3 [JPC-3], the relative viability was 0.821.

Same assay, conditions: first compound 0.4 µM
NCI-H1755 gave a relative viability of 0.536.
HCC-15 was tested, and the relative viability was 0.439.
PC-14 gave a relative viability of 0.514.
In the case of EKVX, the relative viability is reported as 0.366.
With LC-2-ad the relative viability was 0.533.
NCI-H1975 gave a relative viability of 0.824.
RERF-LC-KJ showed a relative viability of 0.561.
ABC-1 was tested, and the relative viability was 0.171.
Cell Line NCI-H1944 has a relative viability of 0.246.
NCI-H650 was tested, and the relative viability was 0.752.
In the case of PC-3 [JPC-3], the relative viability is reported as 0.914.

Same assay, conditions: first compound 1.265 µM
NCI-H1755 showed a relative viability of 0.511.
For HCC-15, the relative viability was 0.345.
Work on PC-14 yielded a relative viability of 0.481.
Cell Line EKVX has a relative viability of 0.349.
For LC-2-ad, the relative viability was 0.387.
NCI-H1975 gave a relative viability of 0.639.
With RERF-LC-KJ the relative viability was 0.456.
ABC-1 gave a relative viability of 0.187.
For NCI-H1944, the relative viability was 0.241.
NCI-H650 was tested, and the relative viability was 0.615.
Work on PC-3 [JPC-3] yielded a relative viability of 0.848.

Same assay, conditions: first compound 4 µM
NCI-H1755 was tested, and the relative viability was 0.524.
HCC-15 gave a relative viability of 0.247.
For PC-14, the relative viability was 0.414.
Work on EKVX yielded a relative viability of 0.407.
LC-2-ad showed a relative viability of 0.42.
With NCI-H1975 the relative viability was 0.56.
Cell Line RERF-LC-KJ has a relative viability of 0.32.
Cell Line ABC-1 has a relative viability of 0.22.
NCI-H1944 was tested, and the relative viability was 0.253.
Work on NCI-H650 yielded a relative viability of 0.746.
With PC-3 [JPC-3] the relative viability was 0.833.

Each cell line was assayed with Cc1ccc2nc(NCCN)c3ncc(C)n3c2c1 + NC(=O)Nc1cc(-c2cccc(F)c2)sc1C(=O)N[C@H]1CCCNC1 [AZD7762] (partner 0.2 µM) in the same assay as above. Conditions: first compound 0.04 µM.
Method in brief: as §1
In the case of NCI-H1755, the relative viability is reported as 0.476.
HCC-15 showed a relative viability of 1.23.
PC-14 was tested, and the relative viability was 0.388.
Cell Line EKVX has a relative viability of 0.723.
Cell Line LC-2-ad has a relative viability of 0.86.
NCI-H1975 showed a relative viability of 0.791.
RERF-LC-KJ gave a relative viability of 1.09.
Work on ABC-1 yielded a relative viability of 0.765.
With NCI-H1944 the relative viability was 0.48.
In the case of NCI-H650, the relative viability is reported as 0.95.
Cell Line PC-3 [JPC-3] has a relative viability of 0.883.

Same assay, conditions: first compound 0.1265 µM
For NCI-H1755, the relative viability was 0.45.
HCC-15 showed a relative viability of 1.27.
PC-14 gave a relative viability of 0.298.
EKVX gave a relative viability of 0.704.
LC-2-ad showed a relative viability of 0.806.
In the case of NCI-H1975, the relative viability is reported as 0.73.
Cell Line RERF-LC-KJ has a relative viability of 0.934.
ABC-1 showed a relative viability of 0.999.
NCI-H1944 was tested, and the relative viability was 0.64.
NCI-H650 was tested, and the relative viability was 0.901.
With PC-3 [JPC-3] the relative viability was 0.623.

Same assay, conditions: first compound 0.4 µM
Cell Line NCI-H1755 has a relative viability of 0.492.
In the case of HCC-15, the relative viability is reported as 1.19.
PC-14 was tested, and the relative viability was 0.239.
EKVX gave a relative viability of 0.693.
For LC-2-ad, the relative viability was 0.822.
Cell Line NCI-H1975 has a relative viability of 0.672.
For RERF-LC-KJ, the relative viability was 0.828.
ABC-1 gave a relative viability of 0.798.
For NCI-H1944, the relative viability was 0.456.
NCI-H650 gave a relative viability of 0.681.
With PC-3 [JPC-3] the relative viability was 0.829.

Same assay, conditions: first compound 1.265 µM
For NCI-H1755, the relative viability was 0.435.
HCC-15 was tested, and the relative viability was 1.17.
Work on PC-14 yielded a relative viability of 0.399.
EKVX gave a relative viability of 0.682.
With LC-2-ad the relative viability was 0.86.
With NCI-H1975 the relative viability was 0.66.
RERF-LC-KJ showed a relative viability of 0.942.
ABC-1 showed a relative viability of 0.741.
Work on NCI-H1944 yielded a relative viability of 0.351.
For NCI-H650, the relative viability was 0.958.
With PC-3 [JPC-3] the relative viability was 0.728.

Same assay, conditions: first compound 4 µM
NCI-H1755 gave a relative viability of 0.433.
HCC-15 gave a relative viability of 1.18.
PC-14 showed a relative viability of 0.287.
In the case of EKVX, the relative viability is reported as 0.525.
For LC-2-ad, the relative viability was 0.795.
NCI-H1975 showed a relative viability of 0.595.
RERF-LC-KJ showed a relative viability of 0.838.
In the case of ABC-1, the relative viability is reported as 0.648.
Work on NCI-H1944 yielded a relative viability of 0.498.
Cell Line NCI-H650 has a relative viability of 1.03.
PC-3 [JPC-3] was tested, and the relative viability was 0.591.

Source: the supplement of paper PMC10307832
